From patent US12427187B2, “Glucose-responsive insulin conjugates” (priority 2019, dated 2025)
pIC50: −log10 of the molar value.

Each molecule was assayed against T1, Human macrophage mannose receptor 1 (MRC1) (Homo sapiens, UniProt P22897) (assay: MRC1 competition binding assay with Eu-mannosylated-BSA). Conditions: Method E: 96-well plate; IP = inflection point; read-out: MRC1 Binding IP.
T1 sequence (P22897 19-1456): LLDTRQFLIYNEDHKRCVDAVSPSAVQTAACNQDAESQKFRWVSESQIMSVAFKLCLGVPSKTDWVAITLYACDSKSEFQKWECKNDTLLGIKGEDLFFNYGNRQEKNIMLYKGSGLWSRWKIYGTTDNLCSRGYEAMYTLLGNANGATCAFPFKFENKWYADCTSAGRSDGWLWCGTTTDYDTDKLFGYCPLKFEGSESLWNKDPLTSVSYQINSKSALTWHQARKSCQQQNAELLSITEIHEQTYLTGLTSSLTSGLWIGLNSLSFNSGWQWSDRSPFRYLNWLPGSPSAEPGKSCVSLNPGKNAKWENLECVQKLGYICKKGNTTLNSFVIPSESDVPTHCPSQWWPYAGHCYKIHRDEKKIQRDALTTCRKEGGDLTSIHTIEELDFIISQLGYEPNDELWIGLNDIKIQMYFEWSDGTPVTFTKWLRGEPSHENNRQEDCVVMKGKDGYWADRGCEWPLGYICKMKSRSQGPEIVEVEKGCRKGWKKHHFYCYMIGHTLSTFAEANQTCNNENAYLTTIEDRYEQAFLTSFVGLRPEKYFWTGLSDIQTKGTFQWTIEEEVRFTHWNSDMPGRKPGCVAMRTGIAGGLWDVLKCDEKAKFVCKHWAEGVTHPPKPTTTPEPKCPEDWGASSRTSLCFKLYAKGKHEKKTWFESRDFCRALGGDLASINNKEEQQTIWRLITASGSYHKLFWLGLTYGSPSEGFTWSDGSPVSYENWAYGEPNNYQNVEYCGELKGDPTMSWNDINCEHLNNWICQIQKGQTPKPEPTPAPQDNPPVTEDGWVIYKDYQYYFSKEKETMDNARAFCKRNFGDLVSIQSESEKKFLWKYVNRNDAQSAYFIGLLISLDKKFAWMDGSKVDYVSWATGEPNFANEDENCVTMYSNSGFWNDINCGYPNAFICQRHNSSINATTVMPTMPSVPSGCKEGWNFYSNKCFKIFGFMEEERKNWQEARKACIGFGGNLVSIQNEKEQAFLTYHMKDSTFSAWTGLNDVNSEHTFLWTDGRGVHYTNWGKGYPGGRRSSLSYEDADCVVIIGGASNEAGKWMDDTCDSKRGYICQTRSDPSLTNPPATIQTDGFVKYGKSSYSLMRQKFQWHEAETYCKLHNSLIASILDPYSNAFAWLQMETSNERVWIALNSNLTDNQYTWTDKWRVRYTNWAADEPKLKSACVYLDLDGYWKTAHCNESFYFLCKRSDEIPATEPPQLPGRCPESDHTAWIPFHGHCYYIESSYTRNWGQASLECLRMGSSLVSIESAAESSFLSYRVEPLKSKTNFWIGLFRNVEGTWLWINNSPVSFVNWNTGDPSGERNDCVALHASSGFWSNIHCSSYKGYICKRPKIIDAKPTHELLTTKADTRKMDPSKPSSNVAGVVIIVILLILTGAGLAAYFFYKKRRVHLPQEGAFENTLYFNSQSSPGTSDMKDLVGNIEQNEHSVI
Protocol: The competition binding assay for Human macrophage mannose receptor 1 (MRC1) utilized a ligand, mannosylated-BSA labeled with the DELFIA Eu-N1-ITC reagent, as reported in the literature. Assay was performed either in a 96-well plate with 100 μL well volume (Method E) or in a 384-well plate with 25 μL well volume (Method F). […] The antibody was incubated in the plate for 1 hr at rt with shaking. The plate was washed with wash buffer 3-5 times followed by addition of MRC1 (2 ng/μl final concentration) in PBS containing 1% stabilizer BSA. The plate was incubated at rt with gentle shaking for 1 hr. The plate was washed three times with wash buffer. The IOC molecules in 12.5 μL (or 50 μL depending on plate format) buffer at appropriate concentrations were added followed by 12.5 μL (or 50 μL) Eu-mannosylated-BSA (0.1 nm final concentration) in 50 mM Tris, pH 7.5 containing 100 mM NaCl, 5 mM CaCl2, 1 mM MgCl2 and 0.2% stabilizer BSA. The plate was incubated for 2 hrs at rt with shaking followed by washing three times with wash buffer.

| pIC50 | SMILES |
| --- | --- |
| 7.37 | CC(=O)[C@H](CCCCN)NC(=O)CCCCC(=O)N[C@@H](CCC(=O)N[C@@H](CCC(=O)NCCO[C@@H]1O[C@@H](C)[C@@H](O)[C@@H](O)[C@@H]1O)C(=O)NCCO[C@@H]1O[C@@H](C)[C@@H](O)[C@@H](O)[C@@H]1O)C(=O)NCCO[C@H]1O[C@H](CO[C@H]2O[C@H](CO)[C@@H](O)[C@H](O)[C@@H]2O)[C@@H](O)[C@H](O[C@H]2O[C@H](CO)[C@@H](O)[C@H](O)[C@@H]2O)[C@@H]1O [IOC-3] |
| 7.51 | CC(=O)[C@H](CCCCN)NC(=O)CCCCC(=O)N[C@@H](CCC(=O)NCCCC[C@@H](C(=O)NCCO[C@H]1O[C@H](CO)[C@@H](O)[C@H](O)[C@@H]1O)N(CC(=O)NCCO[C@H]1O[C@H](CO)[C@@H](O)[C@H](O)[C@@H]1O)CC(=O)NCCO[C@H]1O[C@H](CO)[C@@H](O)[C@H](O)[C@@H]1O)C(=O)N[C@@H](CCC(=O)NCCCC[C@@H](C(=O)NCCO[C@H]1O[C@H](CO)[C@@H](O)[C@H](O)[C@@H]1O)N(CC(=O)NCCO[C@H]1O[C@H](CO)[C@@H](O)[C@H](O)[C@@H]1O)CC(=O)NCCO[C@H]1O[C@H](CO)[C@@H](O)[C@H](O)[C@@H]1O)C(=O)N[C@@H](CC(C)C)C(=O)NCCCC[C@@H](C(=O)NCCO[C@H]1O[C@H](CO)[C@@H](O)[C@H](O)[C@@H]1O)N(CC(=O)NCCO[C@H]1O[C@H](CO)[C@@H](O)[C@H](O)[C@@H]1O)CC(=O)NCCO[C@H]1O[C@H](CO)[C@@H](O)[C@H](O)[C@@H]1O [IOC-56] |
| 8.12 | CC(=O)[C@H](CCCCN)NC(=O)CCCCC(=O)N[C@@H](CCC(=O)NCCO[C@H]1O[C@H](CO[C@H]2O[C@H](CO)[C@@H](O)[C@H](O)[C@@H]2O)[C@@H](O)[C@H](O[C@H]2O[C@H](CO)[C@@H](O)[C@H](O)[C@@H]2O)[C@@H]1O)C(=O)N[C@@H](CCC(=O)NCCO[C@H]1O[C@H](CO[C@H]2O[C@H](CO)[C@@H](O)[C@H](O)[C@@H]2O)[C@@H](O)[C@H](O[C@H]2O[C@H](CO)[C@@H](O)[C@H](O)[C@@H]2O)[C@@H]1O)C(=O)N[C@@H](CC(C)C)C(=O)NCCO[C@H]1O[C@H](CO[C@H]2O[C@H](CO)[C@@H](O)[C@H](O)[C@@H]2O)[C@@H](O)[C@H](O[C@H]2O[C@H](CO)[C@@H](O)[C@H](O)[C@@H]2O)[C@@H]1O [IOC-4] |
| 7.06 | CC(=O)[C@H](CCCCN)NC(=O)CCCCC(=O)N[C@@H](CCC(=O)NCCO[C@H]1O[C@H](CO)[C@@H](O)[C@H](O)[C@@H]1O)C(=O)N[C@@H](CCC(=O)NCCO[C@H]1O[C@H](CO)[C@@H](O)[C@H](O)[C@@H]1O)C(=O)N[C@@H](CCC(=O)NCCO[C@H]1O[C@H](CO)[C@@H](O)[C@H](O)[C@@H]1O)C(=O)NCCO[C@H]1O[C@H](CO)[C@@H](O)[C@H](O)[C@@H]1O [IOC-16] |
| 7.43 | CC(=O)[C@H](CCCCN)NC(=O)CCCCC(=O)N[C@@H](CCC(=O)NCCO[C@H]1O[C@H](CO)[C@@H](O)[C@H](O)[C@@H]1O)C(=O)N[C@@H](CCC(=O)NCCO[C@H]1O[C@H](CO)[C@@H](O)[C@H](O)[C@@H]1O)C(=O)N[C@@H](CCC(=O)NCCO[C@H]1O[C@H](CO)[C@@H](O)[C@H](O)[C@@H]1O)C(=O)NCCO[C@H]1O[C@H](CO[C@H]2O[C@H](CO)[C@@H](O)[C@H](O)[C@@H]2O)[C@@H](O)[C@H](O[C@H]2O[C@H](CO)[C@@H](O)[C@H](O)[C@@H]2O)[C@@H]1O [IOC-23] |
| 8.14 | CC(=O)[C@H](CCCCN)NC(=O)CCCCCNC(=O)[C@H](CCCCNC(=O)CCCCC(=O)NCCO[C@H]1O[C@H](CO[C@H]2O[C@H](CO)[C@@H](O)[C@H](O)[C@@H]2O)[C@@H](O)[C@H](O[C@H]2O[C@H](CO)[C@@H](O)[C@H](O)[C@@H]2O)[C@@H]1O)NC(=O)[C@H](CCCCNC(=O)CCCCC(=O)NCCO[C@H]1O[C@H](CO[C@H]2O[C@H](CO)[C@@H](O)[C@H](O)[C@@H]2O)[C@@H](O)[C@H](O[C@H]2O[C@H](CO)[C@@H](O)[C@H](O)[C@@H]2O)[C@@H]1O)NC(=O)CCCCC(=O)NCCO[C@H]1O[C@H](CO[C@H]2O[C@H](CO)[C@@H](O)[C@H](O)[C@@H]2O)[C@@H](O)[C@H](O[C@H]2O[C@H](CO)[C@@H](O)[C@H](O)[C@@H]2O)[C@@H]1O [IOC-7] |
| 8.04 | CC(=O)[C@H](CCCCN)NC(=O)CCCCC(=O)NCC(=O)N[C@@H](CCC(=O)N[C@@H](CCC(=O)NCCCCCC(=O)NCCO[C@H]1O[C@H](CO[C@H]2O[C@H](CO)[C@@H](O)[C@H](O)[C@@H]2O)[C@@H](O)[C@H](O[C@H]2O[C@H](CO)[C@@H](O)[C@H](O)[C@@H]2O)[C@@H]1O)C(=O)NCCCCCC(=O)NCCOC1O[C@H](CO[C@H]2O[C@H](CO)[C@@H](O)[C@H](O)[C@@H]2O)[C@@H](O)[C@H](O[C@H]2O[C@H](CO)[C@@H](O)[C@H](O)[C@@H]2O)[C@@H]1O)C(=O)NCCCCCC(=O)NCCO[C@H]1O[C@H](CO[C@H]2O[C@H](CO)[C@@H](O)[C@H](O)[C@@H]2O)[C@@H](O)[C@H](O[C@H]2O[C@H](CO)[C@@H](O)[C@H](O)[C@@H]2O)[C@@H]1O (some centres unmarked) [IOC-5] |

Same assay, conditions: Method F: 384-well plate; IP = inflection point; read-out: MRC1 Binding IP

| pIC50 | SMILES |
| --- | --- |
| 7.06 | CC(=O)[C@H](CCCCN)NC(=O)CCCCCNC(=O)[C@H](CCCCNC(=O)[C@H](CCCCNC(=O)[C@H](CCCCNC(=O)[C@H](CCCCNC(=O)CCCCCCNC(=O)CN(CC(=O)NCCO[C@H]1O[C@H](CO)[C@@H](O)[C@H](O)[C@@H]1O)CC(=O)NCCO[C@H]1O[C@H](CO)[C@@H](O)[C@H](O)[C@@H]1O)NC(=O)CN(CC(=O)NCCO[C@H]1O[C@H](CO)[C@@H](O)[C@H](O)[C@@H]1O)CC(=O)NCCO[C@H]1O[C@H](CO)[C@@H](O)[C@H](O)[C@@H]1O)NC(=O)CN(CC(=O)NCCO[C@H]1O[C@H](O)[C@@H](O)[C@H](O)[C@@H]1O)CC(=O)NCCO[C@H]1O[C@H](CO)[C@@H](O)[C@H](O)[C@@H]1O)NC(=O)CN(CC(=O)NCCO[C@H]1O[C@H](CO)[C@@H](O)[C@H](O)[C@@H]1O)CC(=O)NCCO[C@H]1O[C@H](CO)[C@@H](O)[C@H](O)[C@@H]1O)NC(=O)CN(CC(=O)NCCO[C@H]1O[C@H](CO)[C@@H](O)[C@H](O)[C@@H]1O)CC(=O)NCCO[C@H]1O[C@H](CO)[C@@H](O)[C@H](O)[C@@H]1O [IOC-60] |
| 8.05 | CC(=O)[C@H](CCCCN)NC(=O)CCCCCNC(=O)[C@H](CCCCNC(=O)[C@H](CCCCNC(=O)CCCCCNC(=O)CN(CC(=O)NCCO[C@@H]1O[C@@H](C)[C@@H](O)[C@@H](O)[C@@H]1O)CC(=O)NCCO[C@@H]1O[C@@H](C)[C@@H](O)[C@@H](O)[C@@H]1O)NC(=O)CN(CC(=O)NCCO[C@@H]1O[C@@H](C)[C@@H](O)[C@@H](O)[C@@H]1O)CC(=O)NCCO[C@@H]1O[C@@H](C)[C@@H](O)[C@@H](O)[C@@H]1O)NC(=O)CN(CC(=O)NCCO[C@@H]1O[C@@H](C)[C@@H](O)[C@@H](O)[C@@H]1O)CC(=O)NCCO[C@@H]1O[C@@H](C)[C@@H](O)[C@@H](O)[C@@H]1O [IOC-45] |
| 8.08 | CC(=O)[C@H](CCCCN)NC(=O)CCCCCNC(=O)[C@H](CCCCNC(=O)CCOCCOCCNC(=O)CN(CC(=O)NCCO[C@@H]1O[C@@H](C)[C@@H](O)[C@@H](O)[C@@H]1O)CC(=O)NCCO[C@@H]1O[C@@H](C)[C@@H](O)[C@@H](O)[C@@H]1O)NC(=O)[C@H](CCCCNC(=O)CCOCCOCCNC(=O)CN(CC(=O)NCCO[C@@H]1O[C@@H](C)[C@@H](O)[C@@H](O)[C@@H]1O)CC(=O)NCCO[C@@H]1O[C@@H](C)[C@@H](O)[C@@H](O)[C@@H]1O)NC(=O)CCOCCOCCNC(=O)CN(CC(=O)NCCO[C@@H]1O[C@@H](C)[C@@H](O)[C@@H](O)[C@@H]1O)CC(=O)NCCO[C@@H]1O[C@@H](C)[C@@H](O)[C@@H](O)[C@@H]1O [IOC-43] |
| 6.22 | CC(=O)[C@H](CCCCN)NC(=O)CCCCC(=O)NCC(=O)N[C@@H](CCC(=O)N[C@@H](CCC(=O)NCCCCCC(=O)N(CCOC1O[C@H](CO)[C@@H](O)[C@H](O)[C@@H]1O)CCO[C@H]1O[C@H](CO)[C@@H](O)[C@H](O)[C@@H]1O)C(=O)NCCCCCC(=O)N(CCOC1O[C@H](CO)[C@@H](O)[C@H](O)[C@@H]1O)CCOC1O[C@H](CO)[C@@H](O)[C@H](O)[C@@H]1O)C(=O)NCCCCCC(=O)NCCO[C@H]1O[C@H](CO[C@H]2O[C@H](CO)[C@@H](O)[C@H](O)[C@@H]2O)[C@@H](O)[C@H](O[C@H]2O[C@H](CO)[C@@H](O)[C@H](O)[C@@H]2O)[C@@H]1O (some centres unmarked) [IOC-32] |
